Results from PubChem BioAssay AID588780 (Sanford-Burnham Center for Chemical Genomics, 2011).
The source made the active and inactive calls.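 Rule for the calls: active = compounds whose fitted half-maximal concentration in the cell-protection dose series is at or below a set limit; inactive = the rest.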

The compounds below were run on H9c2 cardiomyocytes, 2-deoxyglucose stress, ATP luminescence, 2 h (assay: H9c2 cell survival under 2-deoxyglucose stress – uHTS hits, dose response (AID 588780)).
With `C[C@H](NC(=O)c1nc[nH]c1C(=O)NCC(=O)OCc1ccccc1)C(=O)OCc1ccccc1` the IC50 was > 79 µM (inactive). With `CS(=O)(=O)c1ccc(-c2cnc3c(NC=O)cc(-c4ccsc4)cn23)cc1` the IC50 was > 79 µM (inactive). `O=C(CCc1nc2ccccc2c(=O)[nH]1)NNC(=O)COc1cccc(F)c1` was tested, and the IC50 was > 79 µM (inactive). In the case of `COc1ccc(C(=O)NN/C=C/C(=O)c2ccc(Br)cc2)cc1`, the IC50 is reported as > 79 µM (inactive). In the case of `COc1ccc(COc2cc(-c3cccc(OC)c3)nc3ccc(NC(=O)c4cccnc4)cc23)cc1`, the IC50 is reported as > 79 µM (inactive). In the case of `COC(=O)c1ccccc1S(=O)(=O)N(Cc1ccco1)Cc1cc2cc(OC)ccc2[nH]c1=O`, the IC50 is reported as 15.4 µM. For `COc1cc(/C=N/NC(=O)c2cccnc2)ccc1OCC(=O)Nc1ccccc1Cl`, the IC50 was > 79 µM (inactive). `CCOc1ccc(-n2cc(-c3ccccc3)c3c(N4CCOCC4)ncnc32)cc1` was tested, and the IC50 was > 79 µM (inactive). `COc1cccc(-c2nn3c(-c4ccco4)nnc3s2)c1` was tested, and the IC50 was > 79 µM (inactive). With `COC(=O)c1cc(Cl)c(NC(=O)/C=C/c2ccc(OC)c(OC)c2)cc1OC` the IC50 was > 79 µM (inactive). In the case of `CCOC(=O)c1c(C)[nH]c(C)c1C(=O)COc1ncnc2cc([N+](=O)[O-])ccc12`, the IC50 is reported as 14.6 µM. In the case of `CCOC(=O)C1=C(C)Nc2ccccc2N=C1NC(=O)c1oc2ccccc2c1COC`, the IC50 is reported as > 79 µM (inactive). With `NC(=O)c1cccc2c1C(=O)N(C1CCCCC1)C2` the IC50 was > 79 µM (inactive). For `O=c1[nH]c2cccc(F)c2n2cccc12`, the IC50 was 8.05 µM. `COc1ccc(N(C(=O)c2cccnc2)S(=O)(=O)c2cccs2)cc1` was tested, and the IC50 was > 79 µM (inactive). With `CCOC(=O)C1CCN(c2cc3c(cc2NC(=O)c2ccccc2Br)n(C)c(=O)n3C)CC1` the IC50 was 45.5 µM (inactive). In the case of `COc1cccc(OC)c1-c1nn2c(-c3ccco3)nnc2s1`, the IC50 is reported as > 79 µM (inactive). In the case of `CCOC(=O)c1cnc(Nc2nc3ccccc3o2)nc1CSc1nnc(C)s1`, the IC50 is reported as > 79 µM (inactive). With `Cc1nc(OCc2ccccc2)c2ccccc2n1` the IC50 was 9.43 µM. Work on `COc1ccc(Cl)cc1NC(=O)CCS(=O)(=O)c1cc2c(cc1C)NC(=O)CO2` yielded an IC50 of 21.5 µM. With `COc1ccccc1OCC(=O)N/N=C/c1cccc2cccnc12` the IC50 was 49.2 µM (inactive). In the case of `C/C(=N\NC(=O)CCCNc1ccc(C)cc1)c1ccccn1`, the IC50 is reported as > 79 µM (inactive). With `CCN(CC)c1ccc(C(=O)NNC(=O)CCc2nc3ccccc3c(=O)[nH]2)cc1` the IC50 was > 79 µM (inactive). `O=C(CCc1nc2ccccc2c(=O)[nH]1)N1CCN(S(=O)(=O)c2cccc(F)c2)CC1` was tested, and the IC50 was > 79 µM (inactive). `O=C(COC(=O)Cc1n[nH]c(=O)c2ccccc12)Nc1ccc(Cl)cc1F` was tested, and the IC50 was > 79 µM (inactive). Work on `COCCOC(=O)N/C=C\c1nc2ccccc2c(=O)[nH]1` yielded an IC50 of 26.7 µM. In the case of `Brc1ccc(-c2ccc(/C=N/Nc3nc(N4CCOCC4)nc(N4CCOCC4)n3)o2)cc1`, the IC50 is reported as > 79 µM (inactive). In the case of `C[C@@H](NC(=O)c1nc[nH]c1C(=O)NCC(=O)OCc1ccccc1)c1ccccc1`, the IC50 is reported as > 79 µM (inactive). For `COCCCn1c(N)c(C(=O)Nc2sc3c(c2C(=O)OC)CCCC3)c2nc3ccccc3nc21`, the IC50 was 34 µM (inactive). For `Brc1ccc(CSc2ccc3nnc(-c4cccnc4)n3n2)cc1`, the IC50 was > 79 µM (inactive). `COc1cc(/C=C(\C#N)c2nc3ccc(C)cc3[nH]2)c([N+](=O)[O-])cc1OC` gave an IC50 of 18 µM. `O=C(c1cc(=O)[nH]c2ccccc12)N1CCN(S(=O)(=O)c2ccc3ccccc3c2)CC1` showed an IC50 of 14.5 µM. For `CSCCC(NS(=O)(=O)c1ccccc1)C(=O)OCc1cc(=O)oc2cc(O)ccc12` (centres undefined), the IC50 was > 79 µM (inactive). With `COC(=O)Sc1nc(N2CCOCC2)c2c(c1C#N)CC(C)(C)OC2` the IC50 was > 79 µM (inactive). For `COc1ccc(OC)c(/C=N/NC(=O)c2cc3c(OC)c(OC)ccc3[nH]2)c1`, the IC50 was > 79 µM (inactive). For `CCOC(=O)c1c2ccc(OCC(=O)N/N=C/c3ccc(C)cc3)cc2n2ccccc12`, the IC50 was > 79 µM (inactive). In the case of `O=C(NCC1CCCO1)C(c1ccc(F)cc1)N(C(=O)Cn1nnc(-c2ccc(F)cc2)n1)c1cccc(O)c1` (centres undefined), the IC50 is reported as 13.1 µM. With `CCOC(=O)C1=C(COC(=O)c2cc(OC)c(OC)c(OC)c2)NC(=O)NC1C` (centres undefined) the IC50 was 50 µM (inactive). In the case of `COc1ccc(Br)cc1C(=O)Nc1cccc(NC(=O)c2ccco2)c1`, the IC50 is reported as > 79 µM (inactive). For `CCCn1c(=O)c2[nH]c(-c3ccc(OCC(=O)Nc4ccc(C#N)cc4)cc3)nc2n(CCC)c1=O`, the IC50 was > 79 µM (inactive). `COc1cccc(C(=O)Nc2cccc(-c3nnc(-c4ccco4)o3)c2)c1` was tested, and the IC50 was > 79 µM (inactive). In the case of `CC(=O)n1cc(/C=N/NC(=O)c2sc(C)nc2C)c2ccccc21`, the IC50 is reported as > 79 µM (inactive). `c1ccc(-c2nc(-n3ccnc3)nc(-n3ccnc3)n2)cc1` was tested, and the IC50 was > 79 µM (inactive). `COc1ccccc1OCC(=O)Nc1cccc(-c2nnc(-c3ccco3)o2)c1` was tested, and the IC50 was > 79 µM (inactive). In the case of `Cc1sc2nc(SCC(=O)N(C)C)[nH]c(=O)c2c1C`, the IC50 is reported as > 79 µM (inactive). In the case of `Cc1csc(SCc2nc3sc4c(c3c(=O)[nH]2)CCC4)n1`, the IC50 is reported as > 79 µM (inactive). For `Cc1ccc(CNC(=O)c2oc3ccc(S(=O)(=O)N4CCOCC4)cc3c2C)cc1`, the IC50 was 14.1 µM. With `CCOC(=O)c1cccc(Nc2nc(-c3cccnc3)nc3ccccc23)c1` the IC50 was 29.1 µM. In the case of `COc1ccc(NCc2cc3ccccc3[nH]c2=O)cc1`, the IC50 is reported as > 79 µM (inactive). In the case of `CCOC(=O)C1=C(C)NC(C)=C(C(=O)OCC)C1C(=O)OCC(=O)NC1CCCCC1`, the IC50 is reported as 6.02 µM. With `COc1ccc(C(=O)NNC(=O)c2ccc3ccccc3n2)cc1` the IC50 was > 79 µM (inactive). In the case of `COc1ccc2o/c(=N/NC(=O)c3cccs3)c(C(N)=O)cc2c1`, the IC50 is reported as 16.3 µM. With `CC(Oc1ccccc1)C(=O)Nc1nc(-c2ccccn2)cs1` (centres undefined) the IC50 was > 79 µM (inactive). With `O=c1[nH]nc(Cc2ccccc2)c2ccccc12` the IC50 was > 79 µM (inactive). In the case of `CC(=O)c1ccccc1OCCCN1CCCCC1`, the IC50 is reported as > 79 µM (inactive). Work on `CCOc1ccccc1NC(=O)c1oc2ccccc2c1NC(=O)C1CCCO1` (centres undefined) yielded an IC50 of 10.6 µM. For `COc1ccc(CCNC(=O)C(=O)NCC2CCCN2S(=O)(=O)c2cc(C)ccc2C)cc1` (centres undefined), the IC50 was > 79 µM (inactive). `CCCCn1c(NC(=O)c2ccccc2)nc2ccccc21` was tested, and the IC50 was > 79 µM (inactive). In the case of `COC(=O)c1ccc2c(=O)[nH]c(COC(=O)c3[nH]c(C)c(C(C)=O)c3C)nc2c1`, the IC50 is reported as > 79 µM (inactive). In the case of `NC(=O)c1ccccc1N=Cc1ccccn1`, the IC50 is reported as > 79 µM (inactive). In the case of `COc1ccc(NC(=O)N(C)C[C@H]2Oc3c(NC(=O)Nc4ccc(C(F)(F)F)cc4)cccc3C(=O)N([C@H](C)CO)C[C@@H]2C)cc1`, the IC50 is reported as > 79 µM (inactive). With `O=C(N/N=C/c1ccccn1)c1cc(-c2ccc(Cl)s2)[nH]n1` the IC50 was > 79 µM (inactive). With `CC(=O)Nc1ccc(C(=O)N/N=C/c2ccccc2OC(=O)c2ccc(Cl)cc2)cc1` the IC50 was 11.5 µM. For `COc1ccc(S(=O)(=O)N(CCCN2CCCC2=O)Cc2cc3cc(C)c(C)cc3[nH]c2=O)cc1`, the IC50 was 26.9 µM. In the case of `Oc1ccc(Br)cc1C=Nc1ccc2c3c(cccc13)CC2`, the IC50 is reported as 59.1 µM (inactive). `O=C(CSc1nnc(-c2ccccc2)n1Cc1ccccc1)NNC(=O)c1ccccc1O` was tested, and the IC50 was > 79 µM (inactive). With `COc1ccc(CNc2nn3c(-c4cccc(C(=O)N(C)C)c4)cnc3s2)cc1` the IC50 was > 79 µM (inactive). In the case of `COc1ccc(-c2oc3ncnc(NCCN4CCOCC4)c3c2-c2ccc(OC)cc2)cc1`, the IC50 is reported as 34.3 µM (inactive). With `O=C(NNC(=O)c1cc2cc(Br)ccc2oc1=O)c1ccc(O)cc1O` the IC50 was 31.7 µM (inactive).
